Data reported in PubChem BioAssay AID330 (DTP/NCI, 2004).
Several values for one entry are separate records, joined by “and”; a condition that tells them apart may be missing. Equal values may be shown once. Toxic doses and inconclusive results are not listed.

System: P388 leukemia ip, CD2F1 mice, survival T/C
Assay: NCI In Vivo Anticancer Drug Screen. Data for tumor model P388 Leukemia (intraperitoneal) in CD2F1 (CDF1) mice
Conditions: endpoint: median survival time, higher = longer survival
Description: The antitumor activity of compounds was measured in mice bearing transplantable tumors. Survival or tumor size were measured and the results are expressed as the measurement made in the treated group (T) divided by the measurement made in the vehicle treated control group (C). The tumor model used in this assay is P388 Leukemia (intraperitoneal) in CD2F1 (CDF1) mice

[1] = dose: 12.5 mg/kg/injection, schedule: Q01DX005 (ip), vehicle: Klucel (hydroxypropylcellulose) (HPC)
[2] = dose: 25.0 mg/kg/injection, schedule: Q01DX005 (ip), vehicle: Klucel (hydroxypropylcellulose) (HPC)
[3] = dose: 50.0 mg/kg/injection, schedule: Q01DX005 (ip), vehicle: saline

For `O=C(OC(c1ccccc1)(C(F)(F)F)C(F)(F)F)c1ccccc1Sc1ccccc1`, the T/C (dose: 100.0 mg/kg/injection, schedule: Q01DX009 (ip), vehicle: saline with Tween-80) was 95 % of control, the T/C (dose: 200.0 mg/kg/injection, schedule: Q01DX009 (ip), vehicle: saline with Tween-80) was 90 % of control and the T/C (dose: 400.0 mg/kg/injection, schedule: Q01DX009 (ip), vehicle: saline with Tween-80) was 95 % of control.
In the case of `CNC1Cc2c[nH]c3cccc(c23)C12C=C(C)C(=O)O2` (configuration not stated), the T/C (dose: 75.0 mg/kg/injection, schedule: Q01DX009 (ip), vehicle: saline with Tween-80) is reported as 120 % of control and 115 % of control, the T/C (dose: 150.0 mg/kg/injection, schedule: Q01DX009 (ip), vehicle: saline with Tween-80) is reported as 120 % of control and 115 % of control and the T/C (dose: 300.0 mg/kg/injection, schedule: Q01DX009 (ip), vehicle: saline with Tween-80) is reported as 120 % of control.
For `Cc1ccccc1N=C1SCC(=O)N1c1ccccc1C`, the T/C (dose: 50.0 mg/kg/injection, schedule: Q01DX005 (ip), vehicle: saline with Tween-80) was 96 % of control, the T/C (dose: 100.0 mg/kg/injection, schedule: Q01DX005 (ip), vehicle: saline with Tween-80) was 99 % of control and the T/C (dose: 200.0 mg/kg/injection, schedule: Q01DX005 (ip), vehicle: saline with Tween-80) was 91 % of control.
In the case of `Clc1cc[c]([Sb]2([c]3ccc(Cl)cc3)([c]3ccc(Cl)cc3)[O]C(C(Cl)(Cl)Cl)[O]2)cc1` (configuration not stated), the T/C (dose: 12.5 mg/kg/injection, schedule: Q01DX009 (ip), vehicle: Klucel (hydroxypropylcellulose) (HPC)) is reported as 99 % of control, the T/C (dose: 25.0 mg/kg/injection, schedule: Q01DX009 (ip), vehicle: Klucel (hydroxypropylcellulose) (HPC)) is reported as 104 % of control and the T/C (dose: 50.0 mg/kg/injection, schedule: Q01DX009 (ip), vehicle: Klucel (hydroxypropylcellulose) (HPC)) is reported as 100 % of control and 95 % of control.
For `NC1[N-]C(C2CCCC[N-]2)CC2CCCCC21.O=[N+]([O-])O.O=[N+]([O-])O.[Cu+2]` (configuration not stated), the T/C (dose: 6.25 mg/kg/injection, schedule: Q04DX002 (ip), vehicle: suspension in saline) was 103 % of control and the T/C (dose: 12.5 mg/kg/injection, schedule: Q04DX002 (ip), vehicle: suspension in saline) was 111 % of control.
In the case of `CC(=O)ON=C(C1CC1)C1CC1`, the T/C (dose: 37.5 mg/kg/injection, schedule: Q01DX009 (ip), vehicle: other) is reported as 100 % of control, the T/C (dose: 75.0 mg/kg/injection, schedule: Q01DX009 (ip), vehicle: other) is reported as 106 % of control and the T/C (dose: 150.0 mg/kg/injection, schedule: Q01DX009 (ip), vehicle: other) is reported as 100 % of control. The T/C (dose: 300.0 mg/kg/injection, schedule: Q01DX009 (ip), vehicle: other) was 110 % of control.
In the case of `CN(C)CCCOc1ccccc1NC1=C(Cl)C(=O)C(Nc2ccccc2OCCCN(C)C)=C(Cl)C1=O`, the T/C (dose: 6.25 mg/kg/injection, schedule: Q01DX005 (ip), vehicle: Klucel (hydroxypropylcellulose) (HPC)) is reported as 108 % of control, the T/C [1] is reported as 99 % of control and the T/C [2] is reported as 97 % of control.
With `[Cl][Pt+2][Cl].[NH-]C1C(O)OC(CO)C(O)C1O.[NH-]C1C(O)OC(CO)C(O)C1O` (configuration not stated) the T/C (dose: 25.0 mg/kg/injection, schedule: Q04DX002 (ip), vehicle: saline) was 105 % of control, the T/C (dose: 50.0 mg/kg/injection, schedule: Q04DX002 (ip), vehicle: saline) was 105 % of control and the T/C (dose: 100.0 mg/kg/injection, schedule: Q04DX002 (ip), vehicle: saline) was 105 % of control. The T/C (dose: 200.0 mg/kg/injection, schedule: Q04DX002 (ip), vehicle: saline) was 112 % of control and the T/C (dose: 400.0 mg/kg/injection, schedule: Q04DX002 (ip), vehicle: saline) was 106 % of control.
`NC1=NCN(C2OC(CO)C(O)C2O)C(=O)N1` (configuration not stated) was tested, and the T/C (dose: 3.12 mg/kg/injection, schedule: Q01DX009 (ip), vehicle: saline) was 110 % of control, the T/C (dose: 3.13 mg/kg/injection, schedule: Q01DX009 (ip), vehicle: saline) was 120 % of control and the T/C (dose: 25.0 mg/kg/injection, schedule: Q01DX005 (iv), vehicle: saline) was 118 % of control. For the same compound, the T/C (dose: 25.0 mg/kg/injection, schedule: Q01DX009 (ip), vehicle: saline) was 150 % of control and 159 % of control, the T/C [3] was 150 % of control and the T/C (dose: 120.0 mg/kg/injection, schedule: Q01DX009 (ip), vehicle: saline) was 190 % of control. The T/C (dose: 140.0 mg/kg/injection, schedule: Q01DX009 (ip), vehicle: saline) was 199 % of control and 203 % of control, the T/C (dose: 160.0 mg/kg/injection, schedule: Q01DX009 (ip), vehicle: saline) was 200 % of control and the T/C (dose: 200.0 mg/kg/injection, schedule: Q01DX005 (ip), vehicle: saline) was 184 % of control. The T/C (dose: 400.0 mg/kg/injection, schedule: Q01DX009 (ip), vehicle: saline) was 88 % of control and 90 % of control.
For `OCC1(C2CCN(Cc3ccccc3)CC2)OCCO1`, the T/C (dose: 25.0 mg/kg/injection, schedule: Q01DX005 (ip), vehicle: saline) was 101 % of control, the T/C [3] was 100 % of control and the T/C (dose: 100.0 mg/kg/injection, schedule: Q01DX005 (ip), vehicle: saline) was 101 % of control.
For `CCC1(O)CC2CN(CCc3c([nH]c4ccccc34)C(C(=O)OC)(c3cc4c(cc3OC)N(C)C3C(O)(C(=O)OC)CC5(CC)C=CCN6CCC43C65)C2)C1` (configuration not stated), the T/C (dose: 1.0 mg/kg/injection, schedule: Q01DX001 (ip), vehicle: saline) was 120 % of control and 122 % of control, the T/C (dose: 4.0 mg/kg/injection, schedule: Q01DX001 (ip), vehicle: saline) was 150 % of control and the T/C (dose: 8.0 mg/kg/injection, schedule: Q01DX001 (ip), vehicle: saline) was 155 % of control. For the same compound, the T/C (dose: 16.0 mg/kg/injection, schedule: Q01DX001 (ip), vehicle: saline) was 165 % of control and 175 % of control and the T/C (dose: 32.0 mg/kg/injection, schedule: Q01DX001 (ip), vehicle: saline) was 195 % of control and 205 % of control.
For `CC(=O)Nc1cc2cc(N=CN(C)C)ccc2oc1=O`, the T/C (dose: 60.0 mg/kg/injection, schedule: Q01DX005 (ip), vehicle: Klucel + Tween-80) was 99 % of control and the T/C (dose: 120.0 mg/kg/injection, schedule: Q01DX005 (ip), vehicle: Klucel + Tween-80) was 104 % of control.
For `CC12CCC3C(CCC4CC(OC(=O)Cc5ccc(N(CCCl)CCCl)cc5)CCC43C)C1CCC(=O)N2` (configuration not stated), the T/C (dose: 0.75 mg/kg/injection, schedule: Q01DX009 (ip), vehicle: saline with Tween-80) was 112 % of control and 117 % of control, the T/C (dose: 1.5 mg/kg/injection, schedule: Q01DX009 (ip), vehicle: saline with Tween-80) was 111 % of control and 124 % of control and the T/C (dose: 6.0 mg/kg/injection, schedule: Q01DX009 (ip), vehicle: saline with Tween-80) was 169 % of control and 184 % of control. The T/C (dose: 12.0 mg/kg/injection, schedule: Q01DX009 (ip), vehicle: saline with Tween-80) was 220 % of control and 237 % of control and the T/C (dose: 24.0 mg/kg/injection, schedule: Q01DX009 (ip), vehicle: saline with Tween-80) was 104 % of control and 121 % of control.
For `CC(C)C1(c2ccccc2)C(=O)c2ccccc2C1=O`, the T/C (dose: 100.0 mg/kg/injection, schedule: Q04DX003 (ip), vehicle: saline) was 102 % of control, the T/C (dose: 200.0 mg/kg/injection, schedule: Q04DX003 (ip), vehicle: saline) was 103 % of control and the T/C (dose: 400.0 mg/kg/injection, schedule: Q04DX003 (ip), vehicle: saline) was 105 % of control.
`COc1ccc2c(c1)OC(C)(C)C=C2` was tested, and the T/C (dose: 8.75 mg/kg/injection, schedule: Q01DX009 (ip), vehicle: saline with Tween-80) was 87 % of control, the T/C (dose: 17.5 mg/kg/injection, schedule: Q01DX009 (ip), vehicle: saline with Tween-80) was 98 % of control and the T/C (dose: 35.0 mg/kg/injection, schedule: Q01DX009 (ip), vehicle: saline with Tween-80) was 106 % of control. For the same compound, the T/C (dose: 70.0 mg/kg/injection, schedule: Q01DX009 (ip), vehicle: saline with Tween-80) was 110 % of control.
With `O=c1cn[nH]c(=O)[nH]1` the T/C (dose: 62.5 mg/kg/injection, schedule: Q01DX010 (ip), vehicle: saline) was 100 % of control, the T/C (dose: 125.0 mg/kg/injection, schedule: Q01DX010 (ip), vehicle: saline) was 91 % of control and the T/C (dose: 250.0 mg/kg/injection, schedule: Q01DX010 (ip), vehicle: saline) was 91 % of control.
`Cc1ccc(S(=O)(=O)N/N=C/C=N/NS(=O)(=O)c2ccc(C)cc2)cc1` was tested, and the T/C (dose: 12.5 mg/kg/injection, schedule: Q01DX009 (ip), vehicle: other) was 106 % of control, the T/C (dose: 25.0 mg/kg/injection, schedule: Q01DX009 (ip), vehicle: other) was 107 % of control and the T/C (dose: 50.0 mg/kg/injection, schedule: Q01DX009 (ip), vehicle: other) was 105 % of control. The T/C (dose: 100.0 mg/kg/injection, schedule: Q01DX009 (ip), vehicle: other) was 96 % of control and the T/C (dose: 200.0 mg/kg/injection, schedule: Q01DX009 (ip), vehicle: other) was 97 % of control.
For `Cc1cc2[n-]c1/C=c1\[n-]/c(c(CCC(=O)O)c1C)=C\c1[n-]c(c(C)c1CCC(=O)O)/C=c1/cc(C)/c([n-]1)=C/2.[Co]`, the T/C [1] was 98 % of control, the T/C [2] was 101 % of control and 97 % of control and the T/C (dose: 50.0 mg/kg/injection, schedule: Q01DX005 (ip), vehicle: Klucel (hydroxypropylcellulose) (HPC)) was 106 % of control.
With `O=[N+]([O-])c1ccc(C2OC(c3ccncc3)=NC2CO)cc1` (configuration not stated) the T/C (dose: 50.0 mg/kg/injection, schedule: Q01DX009 (ip), vehicle: saline) was 97 % of control, the T/C (dose: 100.0 mg/kg/injection, schedule: Q01DX009 (ip), vehicle: saline) was 91 % of control and the T/C (dose: 200.0 mg/kg/injection, schedule: Q01DX009 (ip), vehicle: saline) was 106 % of control.
